A short description of data set [1]: Crystallization of TBA-containing solution depending on amount of DMSO added (test paper, room temperature). The format is physicochemical. As to conditions: test paper immersed in TBA solution, standing at room temperature, increasing amount of DMSO (FIG. 1). An excerpt:
FIG. 1 is an image showing crystallization of a solution containing TBA as a color indicator depending on the amount of DMSO added.

The nature of data set [2]: Solubility of TBA in solvent with or without DMSO. The format is physicochemical. How it is done:
In the prior art (Korean Patent Laid-open No. 10-2013-0088623), the amount of TBA added was only 2 to 3%.
In the conventional published Patent No. 10-2013-0088623, the addition of 2 to 3 parts by weight of 1,3-diethyl-2-thiobarbituric acid (TBA) was determined to be an appropriate concentration with respect to 100 parts by weight of distilled water due to the solubility problem of TBA thereof. However, in the present invention, the solubility problem of TBA is solved by adding DMSO. By adding DMSO, 3.5 parts or more by weight of TBA can be dissolved in 100 parts by weight of distilled water or ethanol.
In the present example, DMSO (dimethyl sulfoxide) was added to the TBA solution. […] DMSO is an important solvent that dissolves both polar and nonpolar compounds, and can be used in combination with various organic solvents as well as water.
It was difficult to dissolve TBA in an amount of 3.5 parts by weight or more based on 100 parts by weight of the solvent in accordance with the method of the conventional art disclosed in published Patent No. 10-2013-0088623, and although dissolved, TBA was precipitated during the process.

Results on one molecule are retold here after patent US11385220B2, “Methods for measuring oxidative stress in human body fluids” (CHUNGDO PHARM. CO., LTD, priority 2017, dated 2022).

For `CCN1C(=O)CC(=O)N(CC)C1=S` [TBA, 1,3-diethyl-2-thiobarbituric acid], the TBA recrystallization result in data set [1] is reported as “TBA recrystallization decreased”. In data set [2] (distilled water, no DMSO), the “TBA dissolved in distilled water” value was “not dissolved in distilled water”. In addition, the “TBA dissolved in ethanol” value in data set [2] (ethanol, no DMSO) was “about 3.5%”. In addition, the “amount of TBA that can be dissolved by the conventional method” value in data set [2] (per 100 parts by weight of solvent, no DMSO (method of KR 10-2013-0088623), precipitated during the process) is below 3.5 parts by weight.
